In publication PMC11123841, “Discovery and Synthesis of Hydroxy-L-Proline Blockers of the Neutral Amino Acid Transporters SLC1A4 (ASCT1) and SLC1A5 (ASCT2)” (Molecules, 2024):
Entries after “also recorded” stand apart in the source; their conditions may differ.

Key:
Format in all cases: cell-based
SLC1A4 [1] = biological target: T1, SLC1A4 (Homo sapiens, UniProt P43007); experiment: Schild analysis of L-alanine dose responses
T1 construct: expressed in transfected cells; host or cells: Xenopus laevis oocytes (cRNA injection)
T1 sequence (P43007 1-532): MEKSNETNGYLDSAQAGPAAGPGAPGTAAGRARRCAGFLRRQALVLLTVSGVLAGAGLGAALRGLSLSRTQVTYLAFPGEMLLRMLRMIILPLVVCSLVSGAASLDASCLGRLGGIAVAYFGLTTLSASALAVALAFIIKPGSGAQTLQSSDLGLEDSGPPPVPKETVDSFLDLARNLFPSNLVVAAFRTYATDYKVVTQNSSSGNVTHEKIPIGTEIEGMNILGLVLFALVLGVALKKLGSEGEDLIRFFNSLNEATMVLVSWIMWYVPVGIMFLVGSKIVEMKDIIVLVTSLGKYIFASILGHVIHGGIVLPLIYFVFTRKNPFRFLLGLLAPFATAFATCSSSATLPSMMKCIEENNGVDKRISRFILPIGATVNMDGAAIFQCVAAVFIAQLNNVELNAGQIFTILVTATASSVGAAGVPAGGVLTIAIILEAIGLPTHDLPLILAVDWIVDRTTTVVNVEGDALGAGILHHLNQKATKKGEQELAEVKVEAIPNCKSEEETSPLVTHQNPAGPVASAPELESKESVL
Method: We further characterized the highest affinity blocker discovered from our AHPC series, biphenyl-O-hydroxy-proline (BPOHP, 14e). […] A respective right shift in the substrate dose response was apparent with increasing concentrations of BPOHP (Figure 4C).
(§1) Two-electrode voltage clamp (TEVC) transporter currents were recorded with a GeneClamp 500 amplifier and Digidata 1320A analog–digital interface (Molecular Devices, San Jose, CA, USA). Electrodes (0.2–1.0 MΩ) were filled with 3M KCl and the recording chamber was grounded with an agar bridge. Data were acquired with Axograph (v1.7.6) and LabChart (v7) and analyzed with Kaleidagraph software (v4.1) (Synergy, Reading, PA, USA). Uncoupled anion currents associated with the transport of substrate and block of SLC1A4 or SLC1A5 mediated leak conductance were recorded in the presence of Ringer with 50% substitution of NaCl by NaSCN to amplify the non-transported anion conductance.
Figure 4 BPOHP 14e characterization as a competitive, non-transportable inhibitor. […] (D) A Schild plot showing a linear relationship between [L-ala] dose ratio and four different concentrations of BPOHP, consistent with competitive inhibition.

SLC1A5 = biological target: T2, SLC1A5 (Mus musculus, UniProt P51912); experiment: [3H]L-alanine heteroexchange (trans-stimulation) in preloaded oocytes; conditions: 3 µM BPOHP, 1 mM L-alanine
T2 construct: expressed in transfected cells; host or cells: Xenopus laevis oocytes (cRNA injection)
T2 sequence (P51912 1-553): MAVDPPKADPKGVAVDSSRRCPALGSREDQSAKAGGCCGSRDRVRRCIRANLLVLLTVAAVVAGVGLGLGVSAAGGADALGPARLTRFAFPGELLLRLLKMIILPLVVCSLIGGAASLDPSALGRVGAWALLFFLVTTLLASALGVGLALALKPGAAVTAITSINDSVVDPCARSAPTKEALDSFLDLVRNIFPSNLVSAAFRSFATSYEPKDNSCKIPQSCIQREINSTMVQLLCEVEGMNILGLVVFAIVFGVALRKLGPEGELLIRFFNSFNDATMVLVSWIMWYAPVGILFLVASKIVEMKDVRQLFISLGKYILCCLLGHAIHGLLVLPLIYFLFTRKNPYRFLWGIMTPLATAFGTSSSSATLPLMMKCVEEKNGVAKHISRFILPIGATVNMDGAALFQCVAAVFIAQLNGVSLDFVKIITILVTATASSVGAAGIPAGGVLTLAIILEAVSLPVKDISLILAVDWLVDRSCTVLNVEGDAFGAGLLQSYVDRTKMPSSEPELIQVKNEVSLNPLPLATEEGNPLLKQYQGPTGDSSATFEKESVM
Method: (§2) Uptake was halted by washing 3 times with 4 °C ND96 buffer. Oocytes were then lysed in 0.1% Triton X-100, and radioactivity was counted via liquid scintillation. Dose response curves were generated by fitting fractional inhibition (I) to the expression I = Imax × [inhibitor]/([inhibitor] + IC50).

SLC1A4 [2] = biological target: T1, SLC1A4; experiment: as above; conditions: 3 µM BPOHP, 1 mM L-alanine
Method: as §2

SLC1A4 [3] = biological target: T1, SLC1A4; experiment: [3H]D-serine uptake in oocytes; conditions: [3H]D-serine 100 nM, 10 µM BPOHP
Method: page 6: vi Figure SM-3A. […] with no effect on SL[…] neutral amino acid transporters SLC38A1(ATA1), SLC38A2 (ATA2), and SLC38A4 (ATA3). SM-3B. […] by application of 10μM BPOHP. Figure SM-4. Tosic acid approach to compound 12c. (i) Tosylic acid 0.1M in THF 60◦C. (ii) […] S.Figure 3 A. […] SLC38A1(ATA1), SLC38A2 (ATA2), and SLC38A4 (ATA3). B. […] SLC7A10+SLC3A2 (asc1+4F2). […]

SLC38A2 (ATA2) = biological target: T3, SLC38A2 (ATA2) (Homo sapiens, UniProt Q96QD8); experiment: TEVC electrogenic coupled currents in oocytes; conditions: 100 µM L-alanine, 3 µM BPOHP
T3 construct: expressed in transfected cells; host or cells: Xenopus laevis oocytes (cRNA injection)
T3 sequence (Q96QD8 1-506): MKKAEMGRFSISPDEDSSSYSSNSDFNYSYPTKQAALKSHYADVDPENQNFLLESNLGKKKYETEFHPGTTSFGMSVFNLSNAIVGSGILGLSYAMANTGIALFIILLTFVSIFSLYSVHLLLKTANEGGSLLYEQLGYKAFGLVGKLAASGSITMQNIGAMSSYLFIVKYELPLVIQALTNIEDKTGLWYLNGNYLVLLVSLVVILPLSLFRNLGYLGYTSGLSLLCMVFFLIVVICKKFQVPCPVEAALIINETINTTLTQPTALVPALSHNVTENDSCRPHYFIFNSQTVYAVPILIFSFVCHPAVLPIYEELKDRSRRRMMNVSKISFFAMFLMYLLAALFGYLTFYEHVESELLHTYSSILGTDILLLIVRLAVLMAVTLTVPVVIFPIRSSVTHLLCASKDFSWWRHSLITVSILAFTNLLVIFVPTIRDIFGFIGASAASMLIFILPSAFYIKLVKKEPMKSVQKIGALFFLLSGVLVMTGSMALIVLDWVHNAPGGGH
Method: Additionally, 4-HP applied at 1 mM was used to assess activity at the glutamate transporters SLC1A3 or SLC1A1.
BPOHP activity was evaluated against the glutamate transporters paralogs within the SLC1A gene family (SLC1A 1–3) as well as at neutral amino acid transporters that share common ligand substrates with the SLC1 family including SLC38A1,2, and 4 (ATA1, ATA2, ATA3) and heteromeric transporters SLC7A10+SLC3A2 (asc-1/4f2).
as §2
as §1, with “Electrodes (0.2–1.0 MΩ) were filled with 3M KCl and the recording chamber was grounded with an agar bridge.” left out, “conductance. […]” for “conductance.”

SLC1A4 [4] = biological target: T1, SLC1A4; experiment: [3H]L-alanine uptake block in oocytes
Method: as §2

- Kb (SLC1A4 [1]): 120 nM
- [3H]L-alanine exchange (SLC1A5): No exchange was detected
- [3H]L-alanine exchange (SLC1A4 [2]): No exchange was detected
- effect on [3H]D-serine uptake (SLC1A4 [3]): blocked
- IC50 (SLC1A4 [4]): 128 nM
Compound: O=C(O)[C@H]1NC[C@@H](OCc2ccc(-c3ccccc3)cc2)[C@@H]1O [14e]
- block of L-alanine current (SLC38A2 (ATA2)): no effect; also recorded: no discernible block; also recorded: no inhibition was detected
